# Read-outs that look alike come from different tables or passages of the source.
# How the values were obtained:
# NCI-H716 cells = test: cells; assay type: cell-based, Human; conditions: for EC50: read-out: GLP 1 Secretion
# [1] = test system: nuclear β-catenin in C2C12 cells; test: cells; assay type: cell-based
# HCT116 = test: cells; assay type: cell-based
# INS-1E cells = test: cells; assay type: cell-based, rat
# HeLa cells = test: cells; assay type: cell-based; conditions: for EC50: read-out: CellCycle G2/M
# SW480 = test: cells; assay type: cell-based
# [2] = test system: HCT116 cells treated with a GSK3β inhibitor; test: cells; assay type: cell-based
# [3] = test system: endothelial tube formation in co-cultures of ECFCs and ADSCs treated with VEGF; test: cells; assay type: cell-based, human; conditions: for IC50: read-out: Anti-Angiogenesis
# DLD-1 = test: cells; assay type: cell-based
# Colo320 = test: cells; assay type: cell-based
# SNU-C1 = test: cells; assay type: cell-based
# RKO = test: cells; assay type: cell-based
# HT-29 = test: cells; assay type: cell-based; conditions: assay number 28; basal
# [4] = test system: ECFC/ADSC co-culture cell nuclei number
# [5] = read-out: Basal_Viability ATP HCT116
# [6] = Homo sapiens, IC50 / EC50, NCI-H716
# [7] = Homo sapiens, SW480, basal, read-out: Basal_Viability ATP SW480
# [8] = Mus musculus, C2C12, IC50 / EC50, C2C12 beta-catenin translocation, read-out: Wnt Pathway
# [9] = Homo sapiens, HCT-116, basal, read-out: Basal_Viability ATP HCT116
# [10] = Homo sapiens, HCT-116, GSK3b inhibitor pretreated, read-out: GSK3b inh pretreated_Viability ATP HCT116
# [11] = Homo sapiens, DLD-1, basal, read-out: Basal_Viability ATP DLD-1
# [12] = Rattus norvegicus; IC50 / EC50; INS-1E; read-out: Insulin Secretion
# [13] = Homo sapiens, SW480, basal, SW480, read-out: Basal_Viability ATP SW480
# [14] = Mus musculus, C2C12, S2 Table, module primary assay, 20 / 20.1 codes per legend, read-out: Wnt Pathway
# [15] = Homo sapiens, HCT-116, basal, HCT116, read-out: Basal_Viability ATP HCT116
# [16] = Homo sapiens, HCT-116, HCT116 pretreated with GSK3b inhibitor, read-out: GSK3b inh pretreated_Viability ATP HCT116
# [17] = Homo sapiens, DLD-1, basal, DLD-1, read-out: Basal_Viability ATP DLD-1
# [18] = Rattus norvegicus, INS-1E; read-out: Insulin Secretion
# [19] = Homo sapiens, HeLa, IC50 / EC50, HeLa
# [20] = Homo sapiens, DLD-1, read-out: Basal_Viability ATP DLD-1
# [21] = Homo sapiens, HCT-116, read-out: GSK3b inh pretreated_Viability ATP HCT116
# [22] = basal, read-out: Basal_Viability ATP SW480
# [23] = IC50 / EC50, C2C12 beta-catenin translocation, read-out: Wnt Pathway
# [24] = basal, read-out: Basal_Viability ATP HCT116
# [25] = GSK3b inhibitor pretreated, read-out: GSK3b inh pretreated_Viability ATP HCT116
# [26] = basal, read-out: Basal_Viability ATP DLD-1
# [27] = IC50 / EC50; INS-1E; read-out: Insulin Secretion
molecule,measurement,setting,value
Oc1c(Cl)cc(Cl)c(Cl)c1Cc1c(O)c(Cl)cc(Cl)c1Cl,EC50,NCI-H716 cells,> 10000 nM
same,EC50,[1]; read-out: Wnt Pathway,> 10 µM
same,IC50,HCT116; [5],0.0312 µM
same,EC50,INS-1E cells; read-out: Insulin Secretion,> 10 µM
same,EC50,HeLa cells,> 10 µM
O=C(CCBr)N1CCN(C(=O)CCBr)CC1 [Abbott brand of pipobroman],IC50,SW480; read-out: Basal_Viability ATP SW480,> 20 µM
same,EC50,[1]; read-out: Wnt Pathway,> 10 µM
same,IC50,HCT116; [5],> 20 µM
same,IC50,[2]; read-out: GSK3b inh pretreated_Viability ATP HCT116,14 µM
same,IC50,[3],1370 nM
same,IC50,DLD-1; read-out: Basal_Viability ATP DLD-1,> 20 µM
same,EC50,INS-1E cells; read-out: Insulin Secretion,> 10 µM
same,EC50,HeLa cells,> 10 µM
Cc1c(C)n(CCN(C)C)c2ccc(C(=O)OCCN(C)C)cc12 [Amindocate],EC50,NCI-H716 cells; [6],1200 nM
same,IC50,SW480; [7],10.2 µM
same,EC50,[1]; [8],> 10 µM
same,IC50,HCT116; [9],> 20 µM
same,IC50,[2]; [10],> 20 µM
same,IC50,DLD-1; [11],> 20 µM
same,EC50,INS-1E cells; [12],> 10 µM
CC(C)(C)CC(C)(C)c1ccc(O)c(Cc2ccc(Cl)cc2Cl)c1 [Clofoctol],EC50,"NCI-H716 cells; Homo sapiens, NCI-H716",544 nM
same,IC50,SW480; [13],3.97 µM
same,EC50,[1]; [14],> 10 µM
same,IC50,HCT116; [15],5.31 µM
same,IC50,[2]; [16],4.73 µM
same,IC50,DLD-1; [17],2.18 µM
same,EC50,INS-1E cells; [18],> 20 µM
Cc1ccc(CCn2c3c(c4cc(Cl)ccc42)CN(C)CC3)cn1 [Dorastine],IC50,SW480; [7],9.46 µM
same,EC50,[1]; [8],> 10 µM
same,IC50,HCT116; [9],13.4 µM
same,IC50,[2]; [10],> 20 µM
same,IC50,"[3]; Homo sapiens, IC50 / EC50, endothelial tube area, ADSC/ECFC co-culture",> 10000 nM
same,IC50,DLD-1; [11],> 20 µM
same,EC50,INS-1E cells; [12],4.2 µM
same,EC50,HeLa cells; [19],> 10 µM
CCN(CC)CCCC(C)Nc1c2ccc(Cl)cc2nc2ccc(OC)cc12 (stereo not shown) [Mepacrine],IC50,"Colo320; Homo sapiens, COLO 320, read-out: Basal_Viability ATP Colo 320",8.44 µM
same,IC50,"SNU-C1; Homo sapiens, SNU-C1, basal, read-out: Basal_Viability ATP SNU-C1",3.84 µM
same,IC50,SW480; [7],3.6 µM
same,EC50,[1]; [8],> 10 µM
same,IC50,HCT116; [9],5.81 µM
same,IC50,[2]; [10],4.48 µM
same,IC50,DLD-1; [20],7.15 µM
same,IC50,"RKO; Homo sapiens, RKO, read-out: Basal_Viability ATP RKO",3.42 µM
same,EC50,INS-1E cells; [12],4.07 µM
same,EC50,HeLa cells; [19],> 10 µM
CN(C)c1ccc2nc3ccc(=[N+](C)C)cc-3sc2c1 [Methylene blue],IC50,"SW480; Homo sapiens, SW480, read-out: Basal_Viability ATP SW480",2.68 µM
same,EC50,"[1]; Mus musculus, C2C12, read-out: Wnt Pathway",> 10 µM
same,IC50,"HCT116; Homo sapiens, HCT-116, read-out: Basal_Viability ATP HCT116",2.93 µM
same,IC50,[2]; [21],1.39 µM
same,IC50,DLD-1; [20],> 20 µM
same,EC50,"INS-1E cells; Rattus norvegicus, INS-1E, read-out: Insulin Secretion",> 10 µM
OCCOc1ccccc1 [NCGC00090731-08],assay 11 hNCI-H716 GLP1 Secretion max %stim,"NCI-H716 cells; single concentration screen (2 or 10 μM), maximum of all test results",3.7%
same,assay 4 WntCondMedia bCatenin fluor/nucarea C2C12 max %stim,"[1]; single concentration screen (2 and 10 μM), maximum of all test results",0.5%
same,assay 1 Angio CD31 TubeArea max %inh,"[3]; single concentration screen (2 and 10 μM), maximum of all test results, 0 = DMSO, 100 = positive control",8.6%
same,assay 7 5mMGluc INS1E InsulinRelease max %stim,"INS-1E cells; single concentration screen (2 and 10 μM), 5 mM glucose, maximum of all test results",0.2%
CC(=O)O[C@@]12CO[C@@H]1C[C@H](O)[C@@]1(C)C(=O)[C@H](O)C3=C(C)[C@@H](OC(=O)[C@H](O)[C@@H](NC(=O)OC(C)(C)C)c4ccccc4)C[C@@](O)([C@@H](OC(=O)c4ccccc4)[C@H]21)C3(C)C [NCGC00181306-04],Basal_Viability ATP Colo 320 IC50/EC50,"Colo320; assay number 27, basal",1 nM
same,Basal_Viability ATP SNU-C1 IC50/EC50,"SNU-C1; assay number 30, basal",> 20 µM
same,Basal_Viability ATP HT-29 IC50/EC50,HT-29,1 nM
same,Basal_Viability ATP SW480 IC50/EC50,"SW480; assay number 24, basal",1 nM
same,WntCondMedia_bCatenin C2C12 IC50/EC50,"[1]; assay number 5, concentration response",0.0652 µM
same,VEGF_ADSC\ECFC Angio Hoechst NucArea IC50/EC50,[4],> 10 µM
same,Basal_Viability ATP HCT116 IC50/EC50,"HCT116; assay number 25, basal",1 nM
same,GSK3b inh pretreated_Viability ATP HCT116 IC50/EC50,"[2]; assay number 26, GSK3b inhibitor pretreated",1 nM
same,VEGF_ADSC\ECFC Angio CD31 TubeArea IC50/EC50,[3],1 nM
same,Basal_Viability ATP RKO IC50/EC50,"RKO; assay number 29, basal",1 nM
same,Hela CellCycMod PI 2N IC50/EC50,"HeLa cells; assay number 14, 2N",3.1 nM
same,Hela CellCycMod PI S Phase IC50/EC50,"HeLa cells; assay number 15, S phase",> 10 µM
same,Hela CellCycMod PI 4N IC50/EC50,"HeLa cells; assay number 16, 4N",3.35 nM
same,Hela CellCycMod PI MI IC50/EC50,"HeLa cells; assay number 17, MI",3.17 nM
same,Hela CellCycMod PI Cell Number IC50/EC50,"HeLa cells; assay number 18, cell number",1 nM
Cc1cc(CC(C)CC(C)(C)C)n(O)c(=O)c1 (stereo not shown) [Piroctonum],EC50,"NCI-H716 cells; IC50 / EC50, NCI-H716",> 10000 nM
same,IC50,SW480; [22],0.581 µM
same,EC50,[1]; [23],0.591 µM
same,IC50,HCT116; [24],0.772 µM
same,IC50,[2]; [25],0.506 µM
same,IC50,DLD-1; [26],1.08 µM
same,EC50,INS-1E cells; [27],> 10 µM
same,EC50,"HeLa cells; IC50 / EC50, HeLa",> 10 µM
CNC(=O)c1cc(Oc2ccc(NC(=O)Nc3ccc(Cl)c(C(F)(F)F)c3)cc2)ccn1 [Sorafenib tosilate],EC50,"NCI-H716 cells; Homo sapiens, NCI-H716",> 10000 nM
same,EC50,[1]; [14],> 10 µM
same,IC50,[2]; [21],1.12 µM
same,EC50,INS-1E cells; [18],> 10 µM
same,EC50,"HeLa cells; Homo sapiens, HeLa, S2 Table, HeLa, 20 = no response at highest concentration",> 10 µM
"COc1ccc2c(c1)C(=O)N(CCc1ccc(S(=O)(=O)NC(=O)NC3CCCCC3)cc1)C(=O)C2(C)C [gliquidone, reference compound]",IC50,"SW480; Homo sapiens, SW480, 72 h, Table 2, 72 h, Cell TiterGlo, non-adherent, 20 coded, read-out: SW480 viab. IC50",5.5 µM
same,IC50,SW480; [13],5.5 µM
same,EC50,"[1]; Mus musculus, C2C12, Table 2, C2C12, […], 20 / 20.1 coded, read-out: Wnt pot. EC50",> 10 µM
same,IC50,"HCT116; Homo sapiens, HCT-116, 72 h, read-out: HCT-116 viab. IC50, Table 2, basal, 72 h, Cell TiterGlo, non-adherent, 20 coded",10.1 µM
same,IC50,HCT116; [15],10.1 µM
same,IC50,"[2]; Homo sapiens, HCT-116, read-out: HCT-116 (GSK3β) viab. IC50, Table 2, GSK3β inhibitor LY2090314 20 nM, 72 h, Cell TiterGlo, 20 coded",7 µM
same,IC50,[2]; [16],7.03 µM
same,IC50,"DLD-1; Homo sapiens, DLD-1, 72 h, Table 2, 72 h, Cell TiterGlo, non-adherent, 20 coded, read-out: DLD-1 viab. IC50",5.1 µM
same,IC50,DLD-1; [17],5.11 µM
same,EC50,"INS-1E cells; Rattus norvegicus, INS-1E; read-out: Ins. sec. EC50",0.23 µM
same,EC50,INS-1E cells; [18],0.23 µM
C/C(=C(/CCOC(=O)C(C)C)SS/C(CCOC(=O)C(C)C)=C(\C)N(C=O)Cc1cnc(C)nc1N)N(C=O)Cc1cnc(C)nc1N [sulbutiamine],EC50,NCI-H716 cells; [6],2390 nM
same,IC50,SW480; [7],> 20 µM
same,EC50,[1]; [8],> 10 µM
same,IC50,HCT116; [9],> 20 µM
same,IC50,[2]; [10],> 20 µM
same,IC50,DLD-1; [11],> 20 µM
same,EC50,INS-1E cells; [12],> 20 µM
Janssen brand of muromonab-cd3,EC50,"NCI-H716 cells; IC50 / EC50, NCI-H716",790 nM
same,IC50,SW480; [22],3.22 µM
same,EC50,[1]; [23],> 10 µM
same,IC50,HCT116; [24],2.64 µM
same,IC50,[2]; [25],3.66 µM
same,IC50,DLD-1; [26],2.81 µM
same,EC50,INS-1E cells; [27],> 10 µM
same,EC50,"HeLa cells; IC50 / EC50, HeLa",> 10 µM
